Measurements published in US20260151517A1, “SOMATOSTATIN RECEPTOR-TARGETING RADIOPHARMACEUTICALS AND USES THEREOF” (Nuclidium AG, priority 2024, published 2026).
Read-outs that look alike come from different tables or passages of the source. *1 amine or outer side, *2 acyl side, *3 side chain or, on linkers, in order; H or OH if unused. Where a SMILES comes first, the peptide text is derived from it. Bridges are numbered along the chain shown (N, C = ends). [ ]: non-standard residue; d: D form. The star is where a group is joined. NODAGA = O=C(O)CN1CCN(CC(=O)O)CCN(C(CCC(=O)*)C(=O)O)CC1; X1 = NC(=O)Nc1ccc(CC(N[*:1])C(=O)[*:2])cc1; Phe(4-Cl) = N[CH](Cc1ccc(Cl)cc1)C(=O)O

What was measured:
Biodistribution studies = format: in vivo, mice; conditions: athymic nude Foxn1^nu, mouse, iv, 1 MBq, total radioactivity
Protocol: (§1) The dose of the administered radiopharmaceutical was 1 MBq ([…]) diluted to 100 μL with saline solution. The mice were euthanized at 4 hours post-injection, and the organs of interest were collected, rinsed, blotted, weighed, and analyzed in a gamma counter. The results were expressed as the percentage of injected activity per gram of tissue (% IA/g) and reported as mean±standard deviation in Table 32.

[1] = test system: HEK-SST2 xenografted mice; assay: Biodistribution studies; format: in vivo; conditions: 4 hours post-injection, 1 MBq i.v.
Protocol: as §1

in vivo = assay: in vivo; design: species or system mice; conditions: athymic nude Foxn1^nu, mouse, iv, 13 MBq, total radioactivity
Protocol: Dynamic PET scans were acquired for 1 hour post-injection of the investigated radiopharmaceutical. The mice were euthanized using carbon dioxide at 4 hours post-injection, the bladder was mechanically emptied, and static PET scans were acquired for 30 min. PET images were obtained using the β-CUBE PET scanner system (MOLECUBES) and were decay corrected and reconstructed with the VivoQuant software version 4.0. Tomograms and helical CT scans of the whole mouse were first acquired using a NanoSPECT/CTTM scanner (Bioscan Inc.). CT images were reconstructed using CTReco (version r1.146), resulting in a pixel size of 0.2 mm. InVivoScope (version 1.43, Bioscan Inc.) software was used to generate the maximum intensity projection (MIP) of the co-registered PET/CT images presented in FIG. 10.

[2] = test system: well-differentiated BP and GEP neuroendocrine tumors (NET); assay: Human clinical trial, PET/CT imaging vs [^68Ga]Ga-DOTATOC PET/CT; format: in vivo; conditions: Subjects 1-4 and 6
Protocol: The study will be a prospective, open-label, controlled, reader-blind, single center, phase I/II PET/CT study.
The study product will be a single intravenous administration of GMP produced [^61Cu]Cu-NODAGA-LM3 followed by up to three PET/CT acquisitions. [^61Cu]Cu-NODAGA-LM3 will be administered once intravenously at an amount of 20-40 μg (or 13-26 nmol) and an activity range of 150 MBq (±25%).
The control intervention will be [^68Ga]Ga-DOTA-TOC PET/CT (150 MBq (±25%)) (including CE-CT), is acquired as standard of care and not part of the study, but scan results will be used as comparator for the diagnostic efficacy analysis (Phase II).
The diagnostic efficacy analysis (sensitivity, tumor uptake and image contrast (TBR), will be done in comparison with [^68Ga]Ga-DOTA-TOC PET/CT acquired as standard of care in a randomized, cross-over order. Readers of the scans will be blinded for imaging time point, tracers and clinical data and will follow a locked-read methodology. Number of Participants and Rationale: n=27 patients (including 22 patients for the sensitivity analysis powered for both superiority and non-inferiority design and 5 patients with negative [^68Ga]Ga-DOTATOC PET/CT and a positive NETest) […]

## CC(O)C1NC(=O)C(CCCCN)NC(=O)C(Cc2ccc(NC(N)=O)cc2)NC(=O)C(Cc2ccc(O)cc2)NC(=O)C(NC(=O)C(Cc2ccc(Cl)cc2)NC(=O)CCC(C(=O)O)N2CCN(CC(=O)O)CCN(CC(=O)O)CC2)CSSCC(C(=O)NC(Cc2ccc(O)cc2)C(N)=O)NC1=O (centres unmarked) [[^61Cu]Cu-NODAGA-LM3, metal not drawn] ({NODAGA}-[Phe(4-Cl)]CY[X1]KTCY-NH2; disulfide 2-7; configuration not given here)
Biodistribution studies; in vivo, Tumor-to-organ uptake ratio Tumor/Blood
  tissue to tissue ratio at 4 h: 181
Biodistribution studies; in vivo, Tumor-to-organ uptake ratio Tumor/Liver
  tissue to tissue ratio at 4 h: 26
Biodistribution studies; in vivo, Tumor-to-organ uptake ratio Tumor/Muscles
  tissue to tissue ratio at 4 h: 185
Biodistribution studies; in vivo, Tumor-to-organ uptake ratio Tumor/Pituitary
  tissue to tissue ratio at 4 h: 5.3
Biodistribution studies; in vivo, Uptake [% IA/g] Adrenal
  tissue uptake at 4 h: 0.61 ± 0.18 %ID/g
Biodistribution studies; in vivo, Uptake [% IA/g] Blood
  tissue uptake at 4 h: 0.11 ± 0.01 %ID/g
Biodistribution studies; in vivo, Uptake [% IA/g] Bone
  tissue uptake at 4 h: 0.42 ± 0.12 %ID/g
Biodistribution studies; in vivo, Uptake [% IA/g] HEK-STT2-tumor
  tissue uptake at 4 h: 19 ± 2.1 %ID/g
Biodistribution studies; in vivo, Uptake [% IA/g] Heart
  tissue uptake at 4 h: 0.17 ± 0.02 %ID/g
Biodistribution studies; in vivo, Uptake [% IA/g] Intestine
  tissue uptake at 4 h: 0.58 ± 0.12 %ID/g
Biodistribution studies; in vivo, Uptake [% IA/g] Liver
  tissue uptake at 4 h: 0.73 ± 0.06 %ID/g
Biodistribution studies; in vivo, Uptake [% IA/g] Lung
  tissue uptake at 4 h: 0.42 ± 0.05 %ID/g
Biodistribution studies; in vivo, Uptake [% IA/g] Muscle
  tissue uptake at 4 h: 0.1 ± 0.02 %ID/g
Biodistribution studies; in vivo, Uptake [% IA/g] Pancreas
  tissue uptake at 4 h: 0.44 ± 0.24 %ID/g
Biodistribution studies; in vivo, Uptake [% IA/g] Pituitary
  tissue uptake at 4 h: 3.64 ± 0.31 %ID/g
Biodistribution studies; in vivo, Uptake [% IA/g] Spleen
  tissue uptake at 4 h: 0.18 ± 0.02 %ID/g
Biodistribution studies; in vivo, Uptake [% IA/g] Stomach
  tissue uptake at 4 h: 0.79 ± 0.13 %ID/g
Biodistribution studies; kidneys, 4 hours post-injection, 1 MBq i.v., read-out: Uptake [% IA/g] Kidneys
  tissue uptake at 4 h: 3.87 ± 0.51 %ID/g
Biodistribution studies; tumor / all organs except kidneys, 4 hours post-injection, read-out: tumor-to-organ uptake ratio, all the organs except for kidneys
  tissue to tissue ratio at 4 h: > 5
Biodistribution studies; tumor/kidney, 4 hours post-injection, read-out: Tumor-to-organ uptake ratio Tumor/Kidney
  tissue to tissue ratio at 4 h: 4.9
[1]
  Uptake [% IA/g] Kidneys: 3.87±0.51 % IA/g
In vivo
  tissue to tissue ratio: 4
[2]
  physiological uptake in the liver, spleen, and GI tract: very low physiological uptake
